Here are results for 21 molecules from PubChem BioAssay AID330 (DTP/NCI, 2004).

The subject of the assay is P388 leukemia ip, CD2F1 mice, survival T/C. Kind of assay: NCI In Vivo Anticancer Drug Screen. Data for tumor model P388 Leukemia (intraperitoneal) in CD2F1 (CDF1) mice. The following applies: endpoint: median survival time, higher = longer survival. The procedure, abridged: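 Mice carrying the transplanted tumor received test compound or vehicle. Survival was recorded in each group, and the value is the treated-group measurement divided by that of the vehicle-treated control group.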

Setting [1] is: dose: 100.0 mg/kg/injection, schedule: Q01DX009 (ip), vehicle: saline with Tween-80.
The mark [2] stands for this setting: dose: 200.0 mg/kg/injection, schedule: Q01DX009 (ip), vehicle: saline with Tween-80.
[3] abbreviates: dose: 400.0 mg/kg/injection, schedule: Q01DX009 (ip), vehicle: saline with Tween-80.
The mark [4] stands for this setting: dose: 60.0 mg/kg/injection, schedule: Q01DX005 (ip), vehicle: saline with Tween-80.
[5] abbreviates: dose: 120.0 mg/kg/injection, schedule: Q01DX005 (ip), vehicle: saline with Tween-80.
Setting [6] is: dose: 240.0 mg/kg/injection, schedule: Q01DX005 (ip), vehicle: saline with Tween-80.
Where [7] appears, read: dose: 50.0 mg/kg/injection, schedule: Q01DX005 (ip), vehicle: saline with Tween-80.
The mark [8] stands for this setting: dose: 100.0 mg/kg/injection, schedule: Q01DX005 (ip), vehicle: saline with Tween-80.
The mark [9] stands for this setting: dose: 200.0 mg/kg/injection, schedule: Q01DX005 (ip), vehicle: saline with Tween-80.
The mark [10] stands for this setting: dose: 12.5 mg/kg/injection, schedule: Q01DX009 (ip), vehicle: water.
Where [11] appears, read: dose: 50.0 mg/kg/injection, schedule: Q01DX009 (ip), vehicle: water.

Each structure is given as a SMILES string. Several values for one entry are separate records, joined by “and”; a condition that tells them apart may be missing. Identical values can stand only once. Toxic doses and inconclusive results are not listed.

As for `Nc1cc2c(c[n+](CCCCCCCC[n+]3cc4c5ccccc5c(N)cc4c4ccccc43)c3ccccc23)c2ccccc12`, the T/C by setting is: (dose: 1.56 mg/kg/injection, schedule: Q04DX003 (ip), vehicle: other) 161 % of control; (dose: 3.13 mg/kg/injection, schedule: Q04DX003 (ip), vehicle: other) 158 % of control and 161 % of control; (dose: 6.25 mg/kg/injection, schedule: Q04DX003 (ip), vehicle: other) 152 % of control and 205 % of control; (dose: 12.5 mg/kg/injection, schedule: Q04DX003 (ip), vehicle: other) 168 % of control; (dose: 25.0 mg/kg/injection, schedule: Q04DX003 (ip), vehicle: other) 93 % of control; (dose: 50.0 mg/kg/injection, schedule: Q04DX003 (ip), vehicle: other) 86 % of control.

In the case of `C(=C\c1ccco1)/c1ccnnc1`, the T/C is, setting by setting: (dose: 12.5 mg/kg/injection, schedule: Q01DX009 (ip), vehicle: saline) 97 % of control; (dose: 25.0 mg/kg/injection, schedule: Q01DX009 (ip), vehicle: saline) 109 % of control; (dose: 50.0 mg/kg/injection, schedule: Q01DX009 (ip), vehicle: saline) 108 % of control and 97 % of control.

Consider `CCOP(=S)(OCC)Oc1ccccc1`, for which the T/C by setting is: (dose: 100.0 mg/kg/injection, schedule: Q04DX002 (ip), vehicle: saline) 104 % of control; (dose: 200.0 mg/kg/injection, schedule: Q04DX002 (ip), vehicle: saline) 113 % of control; (dose: 400.0 mg/kg/injection, schedule: Q04DX002 (ip), vehicle: saline) 115 % of control.

Turning to `NC/C(=N\O)c1ccc2ccccc2c1`, the T/C runs as follows: (dose: 60.0 mg/kg/injection, schedule: Q01DX005 (ip), vehicle: Klucel (hydroxypropylcellulose) (HPC)) 100 % of control; (dose: 120.0 mg/kg/injection, schedule: Q01DX005 (ip), vehicle: Klucel (hydroxypropylcellulose) (HPC)) 110 % of control; (dose: 240.0 mg/kg/injection, schedule: Q01DX005 (ip), vehicle: Klucel (hydroxypropylcellulose) (HPC)) 105 % of control.

Turning to `COC(=O)CC(OC)OC`, the T/C is 100 % of control under setting [1]; 91 % of control (dose: 100.0 mg/kg/injection, schedule: Q04DX003 (ip), vehicle: saline); 113 % of control under setting [2]; 91 % of control (dose: 200.0 mg/kg/injection, schedule: Q04DX003 (ip), vehicle: saline); 113 % of control under setting [3]; 95 % of control (dose: 400.0 mg/kg/injection, schedule: Q04DX003 (ip), vehicle: saline).

Regarding `[Cu+2].c1nn[nH]n1`, the T/C runs as follows: (dose: 12.5 mg/kg/injection, schedule: Q04DX003 (ip), vehicle: Klucel (hydroxypropylcellulose) (HPC)) 93 % of control; (dose: 25.0 mg/kg/injection, schedule: Q04DX003 (ip), vehicle: Klucel (hydroxypropylcellulose) (HPC)) 97 % of control; (dose: 50.0 mg/kg/injection, schedule: Q04DX003 (ip), vehicle: Klucel (hydroxypropylcellulose) (HPC)) 95 % of control.

In the case of `CCCCCCCCCCCCOP(=O)(CC(=O)NCc1cc(C(C)(C)C)c(O)c(C(C)(C)C)c1)OCCCCCCCCCCCC`, the T/C (dose: 50.0 mg/kg/injection, schedule: Q01DX009 (ip), vehicle: saline with Tween-80) was 92 % of control; the T/C under setting [1] was 92 % of control; the T/C under setting [2] is 90 % of control.

On to `C1SSCC2=C1CSSC2`, for which the T/C was 100 % of control under setting [4], 100 % of control under setting [5] and 107 % of control under setting [6].

Regarding `Cc1ccc(S(=O)(=O)N=Nc2c(O)[nH]c3c(Cl)cc(Cl)cc23)cc1`, the T/C is 103 % of control under setting [7], 100 % of control under setting [8] and 95 % of control under setting [9].

Regarding `C=C(C)c1cc2cc(C(C)=O)ccc2o1`, the T/C (dose: 2.25 mg/kg/injection, schedule: Q01DX009 (ip), vehicle: Klucel (hydroxypropylcellulose) (HPC)) was 108 % of control; the T/C (dose: 4.5 mg/kg/injection, schedule: Q01DX009 (ip), vehicle: Klucel (hydroxypropylcellulose) (HPC)) is 115 % of control; the T/C (dose: 9.0 mg/kg/injection, schedule: Q01DX009 (ip), vehicle: Klucel (hydroxypropylcellulose) (HPC)) was 97 % of control; the T/C (dose: 18.0 mg/kg/injection, schedule: Q01DX009 (ip), vehicle: Klucel (hydroxypropylcellulose) (HPC)) is 115 % of control; the T/C (dose: 36.0 mg/kg/injection, schedule: Q01DX009 (ip), vehicle: Klucel (hydroxypropylcellulose) (HPC)) is 113 % of control.

For the molecule `COC(=O)C(NC(=O)c1ccccc1)C1CCC(Cl)CN1C(=O)OCc1ccccc1` (stereo unspecified), the T/C (dose: 8.75 mg/kg/injection, schedule: Q01DX009 (ip), vehicle: Klucel (hydroxypropylcellulose) (HPC)) is 100 % of control; the T/C (dose: 17.5 mg/kg/injection, schedule: Q01DX009 (ip), vehicle: Klucel (hydroxypropylcellulose) (HPC)) was 100 % of control; the T/C (dose: 35.0 mg/kg/injection, schedule: Q01DX009 (ip), vehicle: Klucel (hydroxypropylcellulose) (HPC)) is 100 % of control; the T/C (dose: 70.0 mg/kg/injection, schedule: Q01DX009 (ip), vehicle: Klucel (hydroxypropylcellulose) (HPC)) was 92 % of control.

With `N#Cc1c(N)nc(-c2ccccc2)nc1Nc1ccccc1`, the T/C is 90 % of control under setting [4], 104 % of control under setting [5] and 99 % of control under setting [6].

For the molecule `N#CCSCC#N`, the T/C was 100 % of control under setting [4], 100 % of control under setting [5] and 104 % of control under setting [6].

As for `NCCC(=O)OC1CCCc2c(O)c3c(c(O)c21)C(=O)c1ccccc1C3=O` (stereo unspecified), the T/C (dose: 3.12 mg/kg/injection, schedule: Q01DX009 (ip), vehicle: water) is 103 % of control; the T/C (dose: 6.25 mg/kg/injection, schedule: Q01DX009 (ip), vehicle: water) is 94 % of control; the T/C under setting [10] is 100 % of control; the T/C (dose: 25.0 mg/kg/injection, schedule: Q01DX009 (ip), vehicle: water) was 93 % of control; the T/C under setting [11] is 93 % of control.

For the molecule `NC(C(=O)O)C(CC(=O)O)c1ccc(O)cc1` (stereo unspecified), the T/C was 100 % of control (dose: 50.0 mg/kg/injection, schedule: Q01DX007 (ip), vehicle: saline); 100 % of control (dose: 100.0 mg/kg/injection, schedule: Q01DX007 (ip), vehicle: saline); 101 % of control (dose: 200.0 mg/kg/injection, schedule: Q01DX007 (ip), vehicle: saline).

Turning to `COc1ccc(C2=C(Cl)C(=O)N(c3ccccn3)C(=O)C2(Cl)Cl)cc1`, the T/C is 98 % of control (dose: 100.0 mg/kg/injection, schedule: Q04DX003 (ip), vehicle: Klucel (hydroxypropylcellulose) (HPC)); 106 % of control (dose: 200.0 mg/kg/injection, schedule: Q04DX003 (ip), vehicle: Klucel (hydroxypropylcellulose) (HPC)); 100 % of control (dose: 400.0 mg/kg/injection, schedule: Q04DX003 (ip), vehicle: Klucel (hydroxypropylcellulose) (HPC)).

Turning to `ICC1COC(CI)CO1` (stereo unspecified), the T/C reads like this: under setting [1], 100 % of control; under setting [2], 104 % of control; under setting [3], 90 % of control.

Take `O=C(Nc1nncs1)C(F)(F)F`: the T/C is 111 % of control (dose: 12.5 mg/kg/injection, schedule: Q01DX009 (ip), vehicle: distilled water + Tween-80); 109 % of control under setting [10]; 118 % of control (dose: 25.0 mg/kg/injection, schedule: Q01DX009 (ip), vehicle: distilled water + Tween-80); 163 % of control (dose: 50.0 mg/kg/injection, schedule: Q01DX009 (ip), vehicle: distilled water + Tween-80); 159 % of control under setting [11].

For `C[Si](C)(C)N1[Si](C)(C)N[Si](C)(C)N([Si](C)(C)F)[Si]1(C)C`, the T/C is 113 % of control (dose: 50.0 mg/kg/injection, schedule: Q01DX005 (ip), vehicle: Klucel (hydroxypropylcellulose) (HPC)); 105 % of control (dose: 100.0 mg/kg/injection, schedule: Q01DX005 (ip), vehicle: Klucel (hydroxypropylcellulose) (HPC)); 104 % of control (dose: 200.0 mg/kg/injection, schedule: Q01DX005 (ip), vehicle: Klucel (hydroxypropylcellulose) (HPC)).

For `CCCN1C(=O)CC(NC(C)=O)C1=O` (stereo unspecified), the T/C under setting [7] is 107 % of control, the T/C under setting [8] is 107 % of control and the T/C under setting [9] is 107 % of control.

Turning to `C[N+](C)([O-])Cc1ccccc1C[N+](C)(C)[O-]`, the T/C (dose: 60.0 mg/kg/injection, schedule: Q01DX005 (ip), vehicle: saline) is 102 % of control; the T/C (dose: 120.0 mg/kg/injection, schedule: Q01DX005 (ip), vehicle: saline) was 110 % of control; the T/C (dose: 240.0 mg/kg/injection, schedule: Q01DX005 (ip), vehicle: saline) was 112 % of control.
